Source: US5914244A, “UL97 fusion proteins and methods of use” (priority 1997, dated 1999)
Read-outs that look alike come from different tables or passages of the source.

Tests used:
[1] = target: T1, GST-UL97 fusion protein (glutathione-S-transferase fused to wild-type UL97 protein kinase of CMV strain AD169) (Human cytomegalovirus, UniProt P16788); test: biochemical; format: biochemical; conditions: for inhibition at 10 µM: read-out: reduction / inhibition of histone phosphorylation
T1 construct: degradation products of the full length GST-UL97 fusion proteins; made in house; host or cells: Spodoptera frugiperda Sf21 cells infected with recombinant baculovirus BVGSTUL97
T1 sequence (P16788 whole entry, the tested form may be a part): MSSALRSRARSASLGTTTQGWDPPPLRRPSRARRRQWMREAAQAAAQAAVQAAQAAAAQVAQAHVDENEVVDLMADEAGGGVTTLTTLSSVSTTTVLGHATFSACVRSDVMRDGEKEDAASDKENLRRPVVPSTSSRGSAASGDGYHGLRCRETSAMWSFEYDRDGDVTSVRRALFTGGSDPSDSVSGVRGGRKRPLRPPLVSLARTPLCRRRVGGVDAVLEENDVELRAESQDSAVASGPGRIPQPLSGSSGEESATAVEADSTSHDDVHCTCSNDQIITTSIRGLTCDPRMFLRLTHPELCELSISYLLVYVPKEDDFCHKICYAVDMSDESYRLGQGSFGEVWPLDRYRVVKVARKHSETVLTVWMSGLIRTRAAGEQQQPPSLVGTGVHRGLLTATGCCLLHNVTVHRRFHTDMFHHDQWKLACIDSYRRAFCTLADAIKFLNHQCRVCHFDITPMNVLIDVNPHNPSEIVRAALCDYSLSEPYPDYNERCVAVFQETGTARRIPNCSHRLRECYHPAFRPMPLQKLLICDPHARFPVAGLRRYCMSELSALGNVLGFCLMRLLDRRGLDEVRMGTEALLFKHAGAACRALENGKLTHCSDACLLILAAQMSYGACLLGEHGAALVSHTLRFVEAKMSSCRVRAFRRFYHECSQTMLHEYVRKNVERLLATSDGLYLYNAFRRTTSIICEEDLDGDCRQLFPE
Description: (§1) Protein samples were added to 20 μl of reaction buffer containing 50 mM Tris HCl pH 9.0, 10 mM MgCl2, 5 μM ATP, 2 mM DTT, 1 M NaCl and 5 μCi γ^32 P-ATP (unless otherwise stated). After incubation at 37° C. for 30 min (unless otherwise stated), the reactions were terminated by addition of 20 μl of 2× Laemmli sample buffer to the sample and boiling for 3 min. Phosphorylated proteins were resolved by electrophoresis on 10% SDS-PAGE gels and detected by autoradiography. In order to quantitate the level of phosphorylation, the region of the gel corresponding to the labelled protein was excised and the Cerenkov radioactivity was counted. For assay of extracts of insect cells infected with BVUL97 and related recombinant viruses, 2×10^7 infected or mock-infected cells were broken by sonication in 1 ml of ice-cold lysis buffer B (50 mM Tris-HCl pH 7.6, 100 mM NaCl, 5 mM MgCl2, 0.1% NP-40, 10% glycerol, […] and 1 mM PMSF). Insoluble material was removed by centrifugation at 12,000×g for 5 minutes.
Exogenous UL97 substrates identified in the substrate assay are used to detect agents which affect UL97 protein kinase activity. […] In a typical reaction, 0.8 μg/μl histone was dissolved in 20 μl reaction buffer, and the reaction was initiated by addition of 1.9 ng/μl GST-UL97. Following a 30 min incubation at 37° C., the reaction was terminated by the addition of 2× Laemmli sample buffer to the sample and boiling for 3 min. Proteins were separated on 15% SDS-PAGE gels, and phosphorylation was detected by autoradiography.
In this assay, an agent which may be an inhibitor or an activator of UL97 is added to the phosphorylation reaction, and the reaction is allowed to proceed. The amount of phosphorylation is then measured, to see if the agent increases or decreases UL97-mediated histone phosphorylation.

[2] = target: T1, GST-UL97 fusion protein (glutathione-S-transferase fused to wild-type UL97 protein kinase of CMV strain AD169); test: GST-UL97 autophosphorylation protein kinase assay (Km by Lineweaver-Burk plot); format: biochemical
Description: as §1
The Michaelis or apparent dissociation constant (Km) for GST-UL97 was determined using a Lineweaver-Burk plot. Kinase reactions (enzyme concentration, 4.7 ng/μl) were carried out in 200 μl standard assay buffer. […] Radiolabelled GST-UL97 was separated on 10% SDS-PAGE gels and quantified by Cerenkov count. […]

Nc1ncnc2c1ncn2[C@@H]1O[C@H](COP(=O)(O)OP(=O)(O)O)[C@@H](O)[C@H]1O [ADP]
activity at 5 µM ([1]; addition at 5 μM, histone phosphorylation, none = 100): 166% | effect on UL97 protein kinase activity (in words) ([1]; histone phosphorylation, ADP at 5 μM): stimulatory effect

Nc1ncnc2c1ncn2[C@@H]1O[C@H](COP(=O)(O)OP(=O)(O)OP(=O)(O)O)[C@@H](O)[C@H]1O [ATP]
Km ([2]; optimal divalent cation concentration, enzyme 4.7 ng/μl, read-out: Km determined for ATP as substrate): 2 ± 0.5 µM

Nc1nc2c(ncn2[C@@H]2O[C@H](COP(=O)(O)OP(=O)(O)OP(=O)(O)O)[C@@H](O)[C@H]2O)c(=O)[nH]1 [GTP]
Km ([2]; 10 mM Mg2+, read-out: Km for GTP as a phosphate donor): 4 µM

Nc1nc2c(ncn2[C@@H]2O[C@H](CO)[C@@H](O)[C@H]2O)c(=O)[nH]1 [Guanosine]
activity at 10 µM [1]: 125% | effect on GST-UL97 kinase activity (in words) ([1]; histone phosphorylation, cAMP 5 μM, guanosine 10 μM (Table 2)): Neither cAMP nor guanosine showed an inhibitory effect

O=c1c(O)c(-c2ccc(O)c(O)c2)oc2cc(O)cc(O)c12 [Quercetin]
activity at 10 µM ([1]; addition at 10 μM, histone phosphorylation, none = 100, read-out: Activity (%)): 28% | inhibition at 10 µM ([1]; agent at 10 μM): > 70%

N#CC(C#N)=Cc1ccc(O)c(O)c1 [Tyrphostin 23]
activity at 10 µM [1]: 27% | inhibition at 10 µM [1]: 73%

NCCCNCCCCNCCCN [spermine]
activity at 100 µM [1]: 163% | effect on UL97-mediated phosphorylation of histone (in words) ([1]; 0.1 mM spermine): enhanced
